Legend:
[1] = system: soybeans; assay: Pre-planting sugar application on soybeans, Hickson; format: in vivo, soybean; settings: for Yield / Yield Increase Compared to Check Average: ND
Protocol: (§1) The field trials were conducted simultaneously in two different planting locations for each of the crops. One location was near the community of Foxhome in Wilkin County, Minnesota (hereafter referred to as “Foxhome”) while the second location was near the community of Hickson in Cass County, North Dakota (hereafter referred to as “Hickson”). The Foxhome and Hickson locations are on opposite sides of the Red River along the border of Minnesota and North Dakota and separated by a distance exceeding 40 miles. Generally, the Foxhome location has heavier clay loam soil conditions while Hickson has sandy loam soil conditions.
(§2) At each of the Foxhome and Hickson locations, a total of thirty two (32) treatments were conducted for each crop (sugarbeets, soybeans, corn, wheat). Each treatment was replicated four times arranged in a Randomized Complete Block (RCB) Design in the same field. Each replication consisted of a plot measuring twenty five (25) feet in length and eleven (11) feet in width. In selecting the particular seed types for evaluation, popular commercial varieties to the region were utilized. For the row crops (sugarbeets, soybeans, corn) each replication included a width of six (6) rows with twenty two (22) inch row spacing and having a row length of twenty five (25) feet. The wheat was planted in accordance with standard commercial practices. To reduce/eliminate any treatment impacts between adjacent plots for the crops, only the four (4) interior rows of each plot were treated and evaluated for row crops, while for wheat, only the interior 7.33 feet of each plot were treated and evaluated. With the exception of the treatment program applied to the individual plots, which will be discussed below, conventional commercial growing practices for each planting location were otherwise followed during the field trials. While the individual plots at the same location, Hickson or Foxhome, experienced essentially the same growing conditions throughout the season, there were various differences associated with localized precipitation, general growing conditions, soil classification and the like, which contributed to performance differences between the Hickson and Foxhome locations.
(§3) The treatment regimen at each location for each of the tested crops included two (2) untreated treatments (Treatments 31 and 32) in which no sugar was applied and constitute the control elements. […] Six (6) treatments (Treatments 13-18) included the liquid application of high fructose corn syrup (hereafter “HFCS”) at varying rates. Six treatments (Treatments 19-24) included the liquid application of dextrose (hereafter “LIQDEX”) at varying rates. Six (6) treatments (Treatments 25-30) included the application of powdered cellulose (hereafter “POWCEL”) at varying rates. For the sugar applied in a solid form, granulated or powdered, field application was conducted via conventional broadcast spreading. For the sugar applied in a liquid form, a liquid concentrate was mixed and diluted with water in a tank and a conventional sprayer was configured such that the liquid was sprayed so as to have the same sugar equivalent (measured in pounds/per acre) as the sugar in solid form. Regardless of whether the sugar was applied as a solid or liquid, the sugar was applied directly onto the soil before spring tillage, lightly worked into the ground and followed by planting of the crop seed in the treated ground. A summary of application rates for each plot treatments are contained in Table 7 below and were used consistently with each of the crops (sugarbeets, soybeans, corn, wheat).
(§4) To test the impact of pre-planting application rates and sugar source on soybeans, identical field trials using Syngenta brand soybean seed were conducted at the Foxhome and Hickson locations. Planting of the soybean seed and harvest of the soybeans were conducted on approximately the same dates so as to have essentially the same growing season. […]

[2] = system: sugarbeets; assay: Pre-planting sugar application on sugarbeets, Foxhome; format: in vivo, sugarbeet; settings: for Recoverable Sugar Yield / Recoverable Sugar Yield Increase Compared to Check Average / Sugarbeet Yield: MN
Protocol: as §1
as §2, with “trials.” for “trials. While the individual plots at the same location, Hickson or Foxhome, experienced essentially the same growing conditions throughout the season, there were various differences associated with localized precipitation, general growing conditions, soil classification and the like, which contributed to performance differences between the Hickson and Foxhome locations.”
as §3
To test the impact of pre-planting application rates and sugar source on sugarbeets, identical field trials using Crystal® brand ACH 260 sugarbeet seed were conducted at the Foxhome and Hickson locations. Planting of the sugarbeet seed and harvest of the sugarbeets were conducted on as close to the same dates as practical so as to have essentially the same length growing season.

[3] = system: corn; assay: Pre-planting sugar application on corn, Foxhome; format: in vivo; settings: for Yield / Yield Increase Compared to Check Average: MN
Protocol: as §1, §2, §3
as §4, with “corn,” for “soybeans,”, “Peterson Farms” for “Syngenta”, “corn” for “soybean”, “corn” for “soybeans”, “on” for “on approximately”

[4] = system: soybeans; assay: Pre-planting sugar application on soybeans, Foxhome; format: in vivo, soybean; settings: for Yield / Yield Increase Compared to Check: MN
Protocol: as §1, §2, §3, §4

[5] = six rates (25-250 pounds/Acre) per sugar, thirty in all

## OC[C@H]1O[C@@](CO)(O[C@H]2O[C@H](CO)[C@@H](O)[C@H](O)[C@H]2O)[C@@H](O)[C@@H]1O [GS, sucrose]
[1]; pre-planting 25 pounds/Acre
  Yield: 62.54 Bushels/Acre
  Yield Increase Compared to Check Average: 1.28%
[1]; pre-planting 50 pounds/Acre
  Yield: 63.6 Bushels/Acre
  Yield Increase Compared to Check Average: 3.00%
[1]; pre-planting 100 pounds/Acre
  Yield: 62.06 Bushels/Acre
  Yield Increase Compared to Check Average: 0.50%
[1]; pre-planting 150 pounds/Acre
  Yield: 64.21 Bushels/Acre
  Yield Increase Compared to Check Average: 3.98%
[1]; pre-planting 200 pounds/Acre
  Yield: 62.15 Bushels/Acre
  Yield Increase Compared to Check Average: 0.65%
[1]; pre-planting 250 pounds/Acre
  Yield: 61.12 Bushels/Acre
  Yield Increase Compared to Check Average: −1.02%
[1]; [5]
  number of treatments showing yield improvement compared to check average: five of the six
[2]; pre-planting 25 pounds/Acre
  Recoverable Sugar Yield: 8856 Pounds/Acre
  Recoverable Sugar Yield Increase Compared to Check Average: 3.25%
  Sugarbeet Yield: 32.03 Tons/Acre
[2]; pre-planting 50 pounds/Acre
  Recoverable Sugar Yield: 8707 Pounds/Acre
  Recoverable Sugar Yield Increase Compared to Check Average: 1.52%
  Sugarbeet Yield: 32.27 Tons/Acre
[2]; pre-planting 100 pounds/Acre
  Recoverable Sugar Yield: 8100 Pounds/Acre
  Recoverable Sugar Yield Increase Compared to Check Average: −5.56%
  Sugarbeet Yield: 30.85 Tons/Acre
[2]; pre-planting 150 pounds/Acre
  Recoverable Sugar Yield: 9080 Pounds/Acre
  Recoverable Sugar Yield Increase Compared to Check Average: 5.86%
  Sugarbeet Yield: 31.94 Tons/Acre
[2]; pre-planting 200 pounds/Acre
  Recoverable Sugar Yield: 8345 Pounds/Acre
  Recoverable Sugar Yield Increase Compared to Check Average: −2.70%
  Sugarbeet Yield: 30.69 Tons/Acre
[2]; pre-planting 250 pounds/Acre
  Recoverable Sugar Yield: 9002 Pounds/Acre
  Recoverable Sugar Yield Increase Compared to Check Average: 4.96%
  Sugarbeet Yield: 31.80 Tons/Acre
[2]; [5]
  number of treatments showing yield improvement compared to check average: four of the six
[3]; pre-planting 25 pounds/Acre
  Yield: 271.62 Bushels/Acre
  Yield Increase Compared to Check Average: 2.20%
[3]; pre-planting 50 pounds/Acre
  Yield: 272.13 Bushels/Acre
  Yield Increase Compared to Check Average: 2.40%
[3]; pre-planting 100 pounds/Acre
  Yield: 274.80 Bushels/Acre
  Yield Increase Compared to Check Average: 3.40%
[3]; pre-planting 150 pounds/Acre
  Yield: 263.34 Bushels/Acre
  Yield Increase Compared to Check Average: −0.91%
[3]; pre-planting 200 pounds/Acre
  Yield: 264.61 Bushels/Acre
  Yield Increase Compared to Check Average: −0.43%
[3]; pre-planting 250 pounds/Acre
  Yield: 260.71 Bushels/Acre
  Yield Increase Compared to Check Average: −1.90%
[3]; [5]
  number of treatments showing yield improvement compared to check average: three of the six
[4]; pre-planting 25 pounds/Acre
  Yield: 70.03 Bushels/Acre
  Yield Increase Compared to Check: 2.17%
[4]; pre-planting 50 pounds/Acre
  Yield: 70.87 Bushels/Acre
  Yield Increase Compared to Check: 3.40%
[4]; pre-planting 100 pounds/Acre
  Yield: 70.78 Bushels/Acre
  Yield Increase Compared to Check: 3.27%
[4]; pre-planting 150 pounds/Acre
  Yield: 71.45 Bushels/Acre
  Yield Increase Compared to Check: 4.25%
[4]; pre-planting 200 pounds/Acre
  Yield: 67.22 Bushels/Acre
  Yield Increase Compared to Check: −1.93%
[4]; pre-planting 250 pounds/Acre
  Yield: 66.99 Bushels/Acre
  Yield Increase Compared to Check: −2.26%
[4]; [5]
  number of treatments showing yield improvement compared to check treatment 31: four of the six

— patent US20160262390A1, “FIELD APPLICATION OF SUGARS TO INCREASE CROP YIELD” (Minn-Dak Farmers Cooperative, priority 2015, published 2016)
